Measured values as given in patent publication US6992064B2, “N-alkylglycine trimeres capable of protecting neurons against excitotoxic aggressions and compositions containing such trimeres” (Diverdrugs, S.L., priority 2000, dated 2006).

Columns and labels:
[1] = test system: primary cultures of rat cerebellum neurones; test: Neuroprotection of primary cultures of rat cerebellar neurones against excitotoxic aggression (L-glutamate/glycine); type: cell-based; conditions: for decrease of neuronal death: rat cerebellar neurones, 10 μM glycine, prolonged (≧3 h) L-glutamate, read 24 hours post-aggression; for neuroprotector activity (enantiomers versus racemic mixture): primary cultures of cerebellar neurons, L-glutamate 1 mM
Description: The neuroprotector mechanism implies, at least in part, the blocking of the glutamate ionotropic receptors, as is made manifest by the inhibition of the ionic current activated by the NMDA type of glutamatergic receptor agonist expressed in X. laevis ovocites (19,20). An important advantage of these biological tests is that they permit the search for neuroprotectors in functionally active systems, increasing the potentiality of its in vivo use.
Two complementary biological tests were used in order to evaluate the biological activity of the N-alkylglycine trimeres obtained in Example 1.1. The first evaluates the efficiency and power with which said compounds block the ionic current activated by agonists in X. laevis ovocites that express the NMDA receptor. The second, determines the neuroprotector efficiency of the N-alklyglycine trimeres in primary cultures of neurones subjected to an excitotoxic aggression, such as prolonged exposure to L-glutamate and glycine.
It was also observed that the N-alkylglycine trimeres tested protected primary neuronal cultures coming from the cerebellum of rats pre-exposed to 10 μM glycine versus the prolonged exposure (≧3 h) of L-glutamate or N-methyl-D-aspartate at a concentration of […]. The test consists of extracting the cerebellar neurones of baby rats, 7–8 days old, cultivating them in plates in a culture medium supplemented with bovine foetal serum (22). After 13–19 days under culture, the excitotoxic aggression with L-glutamate is performed, monitoring the neuronal death in the absence and presence of the N-alkylglycine trimeres 24 hours post-aggression using two fluorescent dyes: the fluorescent diacetate that indicates the number of viable cells, and the propydium iodine that informs of the number of dead cells (23). As an example, the N-alkylglycine trimere identified as compound [1] decreased a 95% of the neuronal death at a concentration of 30 μg/ml; compound [5] an 85% at 30 μg/ml; compound [23a] a 57% at a concentration of 50 μg/ml, and compound [24] a 60% at 50 μg/ml.
On the other hand, due to the fact that some formula I N-alkylglycine trimeres may be presented as stereoisomers, the possibility that the neuroprotector activity of the racemic mixture preferably corresponded to one of the isomers, was evaluated. For this, the neuroprotector activity of the enantiomers identified as [23b] and [23c] was evaluated, (see Table 1) in primary cultures of cerebellar neurons exposed to excitotoxic aggression, such as the incubation with L-glutamate 1 mM comparing it with the neuroprotector activity of a racemic mixture of said enantiomers. […] Likewise, said power was similar to the one presented by the racemic mixture.

[2] = test system: ammonium-induced neurotoxicity in mice; test: Neurotoxicity model in mice induced by injection of high doses of ammonium (death due to NMDA receptor hyperactivation); type: in vivo; conditions: 0.05–0.1 mg/g intraperitoneal, 10 minutes before 12 mmol/kg ammonium acetate; 24 hours post-injection
Description: A neurotoxicity model was used on mice induced by the injection of high doses of ammonium, the result of which is the death of the animal due to the hyperactivation of the NMDA receptor. The test consists in the intraperitoneal injection in mice of an amount of N-alkylglycine trimere of 0.05–0.1 mg/g, followed, after 10 minutes, with an injection of 12 mmol/kg of ammonium acetate. After 24 hours post-injection, the number of dead mice was determined. The N-alkylglycine trimere identified as compound [24] protected 82% of the mice, whilst the N-alkylglycine trimere identified as compound [23a] protected 100% of the animals.

SMILES | neuroprotector activity (enantiomers versus racemic mixture) [1] | decrease of neuronal death ([1]; 30 μg/ml) | other results
CCC(C)N(CC(N)=O)C(=O)CN(C(=O)CNCCN1CCCC1)C1CC1 (racemic) [compound [23a], [N-[2-(N-pyrrolidinyl)ethyl]glycyl]-[N-(cyclopropyl)glycyl]-N-((R,S)-sec-butyl)glycinamide] | – | – | decrease of neuronal death ([1]; 50 μg/ml): 57%; mice protected from death [2]: 100%
CC[C@@H](C)NC(=O)CN(C(=O)CNCCN1CCCC1)C(=O)CNC1CC1 [[23b], [N-[2-(N-pyrrolidinyl)ethyl]glycyl]-[N-(cyclopropyl)glycyl]-N-((R)-sec-butyl)glycinamide] | neuroprotectors with equal power | – | –
CC[C@H](C)NC(=O)CN(C(=O)CNCCN1CCCC1)C(=O)CNC1CC1 [[23c], [N-[2-(N-pyrrolidinyl)ethyl]glycyl]-[N-(cyclopropyl)glycyl]-N-((S)-sec-butyl)glycinamide] | neuroprotectors with equal power | – | –
CCN(CC)CCCN(CC(=O)N(CCNC(C)=O)CC(N)=O)C(=O)CNCCC(c1ccccc1)c1ccccc1 [compound [1]] [[N-[3,3-diphenylpropyl]glycyl]-[N-[3-(N,N-diethylamine)propyl]glycyl]-N-[2-(methylcarbonylamine)ethyl]glycinamide] | – | 95% | –
CCN(CC)CCCN(CC(=O)N(CCNC(C)=O)CC(N)=O)C(=O)CNCCC(c1ccccc1)c1ccccc1 [compound [5]] [[N-[3,3-diphenylpropyl]glycyl]-[N-[3-N,N-diethylamine)propyl]glycyl]-N-[2-(methylcarbonylamine)ethyl]glycinamide] | – | 85% | –
